We go through 28 compounds from ChEMBL document CHEMBL5036341, “Design, synthesis and biological evaluation of aminopyrimidine derivatives bearing a 4,5,6,7-tetrahydrothieno [3,2-c]pyridine as potent EGFR inhibitors” (Eur J Med Chem, 2021).

Molecules are shown by their SMILES. pIC50: −log10 of the molar value. Active and inactive are the calls of the source. The calls are words filed in the database; no cut-off is given here.

A short description of assay [1]: Inhibition of EGFR L858R/T790M/C797S triple mutant (unknown origin) measured by ELISA. The arrangement: species or system Homo sapiens. (ELISA stands for enzyme-linked immunosorbent assay.)
The species entered for assay [2] is Homo sapiens. Description: Inhibition of EGFR L858R/T790M double mutant (unknown origin) measured at 1 uM by ELISA.
For assay [3], the species on record is Homo sapiens. Description: Inhibition of EGFR L858R/T790M double mutant (unknown origin) measured at 0.1 uM by ELISA.
The test system of assay [4] is NCI-H1975. Nature of the assay: Cytotoxicity against human NCI-H1975 cells assessed as reduction in cell viability measured by MTT assay. Type of assay: functional, cell-based. In general terms: Tetrazolium dyes change colour on reduction, which living cells bring about.
Assay [5] in a line: Inhibition of EGFR L858R/T790M double mutant (unknown origin) measured by ELISA. The arrangement: species or system Homo sapiens.
Assay [6] has as its system A549. Nature of the assay: Cytotoxicity against human A549 cells assessed as reduction in cell viability measured by MTT assay. The class given is functional, cell-based.
For assay [7], the system named is A-431. Nature of the assay: Cytotoxicity against human A-431 cells assessed as reduction in cell viability measured by MTT assay. Type of assay: functional, cell-based.
For assay [8], the species on record is Homo sapiens. Nature of the assay: Selectivity ratio of IC50 for EGFR L858R/T790M double mutant (unknown origin) to IC50 for wildtype EGFR (unknown origin) measured by ELISA.
Assay [9] deals with A549. Description: Induction of apoptosis in human A549 cells assessed as chromatin contraction at 25 uM measured after 24 hrs by AO/EB staining based inverted fluorescence microscopic analysis. The class given is functional, cell-based.
Assay [10] has as its system A549. Description: Inhibition of cell migration in human A549 cells measured after 12 to 36 hours by fluorescence microscopy based wound healing assay. Conditions: dose 1-5 µM, time 12-36 hrs. The class given is functional.
For assay [11], the target named is Epidermal growth factor receptor (Homo sapiens, UniProt P00533). Description: Inhibition of wild type EGFR (unknown origin) measured by ELISA.
Epidermal growth factor receptor, sequence (P00533 whole entry): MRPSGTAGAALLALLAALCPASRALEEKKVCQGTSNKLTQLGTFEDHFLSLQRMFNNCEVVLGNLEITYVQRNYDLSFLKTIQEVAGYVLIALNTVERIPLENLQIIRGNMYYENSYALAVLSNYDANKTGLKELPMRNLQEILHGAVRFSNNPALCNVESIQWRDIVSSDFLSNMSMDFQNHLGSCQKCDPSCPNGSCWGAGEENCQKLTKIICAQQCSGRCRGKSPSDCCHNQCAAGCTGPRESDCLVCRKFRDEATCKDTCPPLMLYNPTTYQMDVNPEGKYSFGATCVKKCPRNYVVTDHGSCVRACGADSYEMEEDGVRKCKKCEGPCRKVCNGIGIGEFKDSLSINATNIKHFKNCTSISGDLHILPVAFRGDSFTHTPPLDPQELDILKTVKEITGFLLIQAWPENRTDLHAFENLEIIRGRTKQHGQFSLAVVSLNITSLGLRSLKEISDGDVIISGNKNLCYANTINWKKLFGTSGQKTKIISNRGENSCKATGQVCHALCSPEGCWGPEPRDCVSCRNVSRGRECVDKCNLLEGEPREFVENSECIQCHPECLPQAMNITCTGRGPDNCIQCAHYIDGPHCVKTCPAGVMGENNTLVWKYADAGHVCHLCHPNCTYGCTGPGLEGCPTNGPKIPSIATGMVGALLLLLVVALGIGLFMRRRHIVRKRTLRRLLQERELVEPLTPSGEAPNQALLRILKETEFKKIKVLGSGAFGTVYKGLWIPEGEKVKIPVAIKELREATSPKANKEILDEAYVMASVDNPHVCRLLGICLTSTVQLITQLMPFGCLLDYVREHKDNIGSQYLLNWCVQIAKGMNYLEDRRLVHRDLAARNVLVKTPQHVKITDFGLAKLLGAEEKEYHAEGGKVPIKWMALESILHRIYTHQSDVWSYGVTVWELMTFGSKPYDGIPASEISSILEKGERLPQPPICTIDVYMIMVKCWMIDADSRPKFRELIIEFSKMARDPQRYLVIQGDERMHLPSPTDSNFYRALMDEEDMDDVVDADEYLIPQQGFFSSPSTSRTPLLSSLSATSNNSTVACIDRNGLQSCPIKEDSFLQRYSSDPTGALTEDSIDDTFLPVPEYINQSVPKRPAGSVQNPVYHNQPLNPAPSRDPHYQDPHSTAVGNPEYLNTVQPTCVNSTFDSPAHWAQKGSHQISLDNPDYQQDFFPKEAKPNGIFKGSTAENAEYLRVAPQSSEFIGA
The test system of assay [12] is A549. Nature of the assay: Antiproliferative activity against human A549 cells assessed as reduction in cell growth incubated for 24 hrs by AO/EB staining based inverted fluorescence microscopic analysis. The class given is functional. As to conditions: dose 1-25 µM.
The test system of assay [13] is NCI-H1975. Description: Induction of apoptosis in human NCI-H1975 cells assessed as necrotic cells at 1 uM measured after 48 hrs by annexinV-FITC and propidium iodide double staining based flow cytometry analysis (reference value: 0.28 %). The class given is functional. Background: Flow cytometry measures light scatter and fluorescence of single cells or particles in a stream.

For assay [14], the system named is NCI-H1975. Nature of the assay: Induction of apoptosis in human NCI-H1975 cells assessed as late apoptotic cells at 0.2 uM measured after 48 hrs by annexinV-FITC and propidium iodide double staining based flow cytometry analysis (reference value: 1.56 %). Type of assay: functional.
Assay [15] deals with NCI-H1975. Nature of the assay: Induction of apoptosis in human NCI-H1975 cells assessed as live cells at 0.2 uM measured after 48 hrs by annexinV-FITC and propidium iodide double staining based flow cytometry analysis (reference value: 94.92 %). Type of assay: functional.
The subject of assay [16] is NCI-H1975. Description: Induction of apoptosis in human NCI-H1975 cells assessed as early apoptotic cells at 0.2 uM measured after 48 hrs by annexinV-FITC and propidium iodide double staining based flow cytometry analysis (reference value: 3.24 %). Type of assay: functional.
In assay [17] the test system is NCI-H1975. Description: Induction of apoptosis in human NCI-H1975 cells assessed as late apoptotic cells at 1 uM measured after 48 hrs by annexinV-FITC and propidium iodide double staining based flow cytometry analysis (reference value: 1.56 %). The class given is functional.
Assay [18] relates to NCI-H1975. Nature of the assay: Induction of apoptosis in human NCI-H1975 cells assessed as live cells at 5 uM measured after 48 hrs by annexinV-FITC and propidium iodide double staining based flow cytometry analysis (reference value: 94.92 %). The class given is functional.
Assay [19] concerns NCI-H1975. Description: Induction of apoptosis in human NCI-H1975 cells assessed as late apoptotic cells at 5 uM measured after 48 hrs by annexinV-FITC and propidium iodide double staining based flow cytometry analysis (reference value: 1.56 %). Type of assay: functional.
For assay [20], the system named is NCI-H1975. Nature of the assay: Induction of apoptosis in human NCI-H1975 cells assessed as live cells at 1 uM measured after 48 hrs by annexinV-FITC and propidium iodide double staining based flow cytometry analysis (reference value: 94.92 %). The class given is functional.
In assay [21] the test system is NCI-H1975. Nature of the assay: Induction of apoptosis in human NCI-H1975 cells assessed as necrotic cells at 0.2 uM measured after 48 hrs by annexinV-FITC and propidium iodide double staining based flow cytometry analysis (reference value: 0.28 %). The class given is functional.
In assay [22] the test system is NCI-H1975. Nature of the assay: Induction of apoptosis in human NCI-H1975 cells assessed as early apoptotic cells at 1 uM measured after 48 hrs by annexinV-FITC and propidium iodide double staining based flow cytometry analysis (reference value: 3.24 %). The class given is functional.
Assay [23] concerns NCI-H1975. Nature of the assay: Induction of apoptosis in human NCI-H1975 cells assessed as necrotic cells at 5 uM measured after 48 hrs by annexinV-FITC and propidium iodide double staining based flow cytometry analysis (reference value: 0.28 %). Type of assay: functional.
For assay [24], the system named is NCI-H1975. Description: Induction of apoptosis in human NCI-H1975 cells assessed as early apoptotic cells at 5 uM measured after 48 hrs by annexinV-FITC and propidium iodide double staining based flow cytometry analysis (reference value: 3.24 %). Type of assay: functional.

As a reminder, the pIC50 is −log10 of the IC50, conventionally taken in molar units. The inhibition is the share of the control response that was lost under treatment.

For the compound `C=CC(=O)Nc1cc(Nc2nccc(-c3cn(C)c4ccccc34)n2)c(OC)cc1N(C)CCN(C)C` [OSIMERTINIB], the pIC50 in assay [1] is 6.89; in assay [4], […]; in assay [5], 8.47. The inhibition in [2] is 99.5%; in assay [3] it was 97.3%.
With `C=CC(=O)Nc1cc(Nc2nccc(N3CCc4sccc4C3)n2)c(OC)cc1N1CCOCC1`, the inhibition in assay [2] worked out at 50.6%; in assay [3], 20.9%.
In the same order, the values of `C=CC(=O)Nc1cc(Nc2nccc(N3CCc4sccc4C3)n2)c(OC)cc1N(C)CCN(C)C` are 76.3% and 54.1%.
In the same order, the values of `CCN(CC)C/C=C/C(=O)Nc1ccc(OC)c(Nc2nccc(N3CCc4sccc4C3)n2)c1` are 77.5% and 36.8%.
With `C=CC(=O)Nc1ccc(OC)c(Nc2ncc(Cl)c(N3CCc4sccc4C3)n2)c1`, the values for the pIC50 in assay [6], in assay [7] and in [4] were 5.16, 4.04 and 6.10, respectively.
As to `COc1cc(NC(=O)CN(C)CCN(C)C)ccc1Nc1nccc(N2CCc3sccc3C2)n1`, the figures for the inhibition in assay [2] and in [3] were 69.7% and 20.9%, respectively.
`COc1cc(NC(=O)CN2CCOCC2)ccc1Nc1nccc(N2CCc3sccc3C2)n1`: the inhibition in [2] came out at 13.9%; in assay [3] it was 3.2%.
The like results for `C=CC(=O)Nc1cc(Nc2nccc(N3CCc4sccc4C3)n2)c(OC)cc1N1CCN(C)CC1` were, in that order, 56.5% and 33.5%.
The like results for `C=CC(=O)Nc1cc(Nc2nccc(N3CCc4sccc4C3)n2)c(OC)cc1N1CCCC1` were, in that order, 43.5% and 14.9%.
`COc1cc(NC(=O)CN2CCN(C)CC2)ccc1Nc1nccc(N2CCc3sccc3C2)n1`: the inhibition came to 58.3% in [2] and 16.3% in assay [3].
In the same order, the values of `CCN1CCN(CC(=O)Nc2ccc(Nc3nccc(N4CCc5sccc5C4)n3)c(OC)c2)CC1` are 36.6% and 9.9%.
Turning to `C=C(Cl)C(=O)Nc1cc(Nc2ncc(Cl)c(N3CCc4sccc4C3)n2)c(OC)cc1N(C)CCN(C)C`, the Ratio IC50 in assay [8] is 26.7. The pIC50 in [6] is 6.18; in assay [1] it was 6.33; in [11], 7.02; in assay [7] it was 4.86; in [4], 7.04; in assay [5], 8.44. For the same compound, in [9], the outcome was Active. In assay [10], the inhibition result was “Dose-Dependent Effect”. Moreover, the Activity entry in assay [12] was “Dose-Dependent Effect”.
As to `C/C=C/C(=O)Nc1cc(Nc2ncc(Cl)c(N3CCc4sccc4C3)n2)c(OC)cc1N(C)CCN(C)C`, in assay [8], the Ratio IC50 worked out at 2.9. In addition, the pIC50 in assay [6] was 6.60; in [11], 6.45; in assay [7], 6.82; in assay [4] it was 6.88; in assay [5], 7.92.
As to `CCN(CC)CC(=O)Nc1ccc(Nc2nccc(N3CCc4sccc4C3)n2)c(OC)c1`, the inhibition in assay [2] worked out at 20.3%; in assay [3] it was 3.6%.
In the case of `CCC(=O)Nc1ccc(OC)c(Nc2ncc(Cl)c(N3CCc4sccc4C3)n2)c1`, the pIC50 in assay [6] is 4.51; in assay [7], under 3.70; in assay [4], 4.82.
As to `C=CC(=O)Nc1cc(Nc2nccc(N3CCc4sccc4C3)n2)c(OC)cc1N1CCN(CC)CC1`, the inhibition in [2] stood at 15.8%; in assay [3], 5.4%.
In the same order, the values of `COc1cc(NC(=O)CN2CCN(CCO)CC2)ccc1Nc1nccc(N2CCc3sccc3C2)n1` are 45.2% and 10.9%.
In the case of `COc1ccc(NC(=O)/C=C/CN(C)C)cc1Nc1nccc(N2CCc3sccc3C2)n1`, the values for the inhibition in [2] and in [3] were 80.1% and 42.2%, respectively.
The like results for `C=CC(=O)Nc1cc(Nc2nccc(N3CCc4sccc4C3)n2)c(OC)cc1N(C)C` were, in that order, 18.2% and 2.3%.
In the case of `C=CC(=O)Nc1cc(Nc2nccc(N3CCc4sccc4C3)n2)c(OC)cc1N(CC)CC`, the inhibition in assay [2] came out at 42.6%; in [3] it was 13.5%.
The like results for `COc1cc(NC(=O)CN(C)C)ccc1Nc1nccc(N2CCc3sccc3C2)n1` were, in that order, 22.5% and 5%.
With `COc1cc(N(C)CCN(C)C)c(NC(=O)/C=C/C(C)C)cc1Nc1ncc(Cl)c(N2CCc3sccc3C2)n1`, the pIC50 is 5.34 in assay [6], 4.67 in [7] and 6.33 in assay [4].
With `COc1cc(N(C)CCN(C)C)c(NC(=O)C=C(C)C)cc1Nc1ncc(Cl)c(N2CCc3sccc3C2)n1`, the pIC50 in assay [6] was 5.29; in assay [7], under 4.30; in assay [4] it was 6.55; in assay [5], 7.79.
On to `CCC(=O)Nc1cc(Nc2ncc(Cl)c(N3CCc4sccc4C3)n2)c(OC)cc1N(C)CCN(C)C`, for which the Activity was determined as 0.84% in assay [13]; 3.44% in assay [14]; 90.82% in assay [15]; 5.23% in assay [16]; 4.98% in assay [17]; 71.42% in [18]. Besides, the Activity is 11.42% in assay [19]; 86.69% in assay [20]; 0.51% in [21]; “Dose-Dependent Effect” in assay [12]; 7.49% in assay [22]; 1.25% in assay [23]. The Activity in assay [24] is given as 15.91%. Also, the Ratio IC50 in assay [8] amounted to 42.5. The pIC50 is 6.34 in [6]; 6.44 in [1]; 6.77 in [11]; 5.66 in assay [7]; 7.07 in assay [4]; 8.40 in [5]. Further, the result in assay [9] was Active. In addition, the inhibition was 99.2% in [2], “Dose-Dependent Effect” in assay [10] and 97.9% in [3].
`C=CC(=O)Nc1cc(Nc2ncc(Cl)c(N3CCc4sccc4C3)n2)c(OC)cc1N(C)CCN(C)C`: in [8], the Ratio IC50 was 7. The pIC50 in assay [6] was 6.78; in [11] it was 8.19; in [7], 5.26; in assay [4], 6.62; in [5], 8.41. Moreover, the results for the inhibition in [2] and in [3] were 97% and 85%, respectively.
As to `C=CC(=O)Nc1cc(Nc2ncc(Cl)c(N3CCc4sccc4C3)n2)c(OC)cc1N1CCN(C)CC1`, the Ratio IC50 in assay [8] was over 13.6. The pIC50 in assay [6] was 5.81; in assay [1], 6.18; in assay [11], under 5.40; in assay [7], under 4.30; in [4] it was 6.71; in assay [5], 6.53.
Consider `CCC(=O)Nc1cc(Nc2nccc(N3CCc4sccc4C3)n2)c(OC)cc1N(C)CCN(C)C`, for which the inhibition in assay [2] is 82.2%; in assay [3], 67.7%.
In the same order, the values of `COc1cc(NC(=O)CN2CCC(C)CC2)ccc1Nc1nccc(N2CCc3sccc3C2)n1` are 26.1% and 4.5%.
